# Experimental data from patent US10881110B2, “Herbicidal compositions comprising isoxazolo[5,4-b]pyridines” (BASF SE, priority 2014, dated 2021).
# Like-named read-outs stand apart in the source and are kept apart here.
# Tests used:
# Assay in all cases: greenhouse post-emergence herbicidal test
# ERICA = format: in vivo, Conyza canadensis; design: key to herbicidal activity against ERICA found: rating on a scale from 0 to 100; conditions: post emergence
# How it was run: (§1)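 Once 1 to 15 cm tall, potted seedlings in loamy sand received the active compounds emulsified or suspended in water. After 20 days, damage versus untreated growth was graded on a 0–100 scale, and synergy judged against Colby's additive value E.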
# ABUTH = format: in vivo, Abutilon theophrast; design: key to herbicidal activity against ABUTH found: rating on a scale from 0 to 100
# How it was run: as §1
# GALAP = format: in vivo, Galium aparine; design: key to herbicidal activity against GALAP found: rating on a scale from 0 to 100; conditions: for herbicidal activity against GALAP found: 20 days after treatment
# How it was run: (§2)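 Post-emergence greenhouse test: plants in loamy sand, sprayed at 1–15 cm height with aqueous spray liquor from 10% emulsion concentrates, kept at 10-25 °C or 20-35 °C by species. Damage scored 0–100 (100 = complete destruction), usually 20 days after treatment. Expected additive effect E from Colby: E=X+Y−(X·Y/100).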
# CONAR = format: in vivo, Convolvulus arvensis; design: key: rating on a scale from 0 to 100
# Experimental: (§3) The culture containers used were plastic pots containing medium loamy sand with approximately 4.6% of humus and 69.9% sand as substrate. The seeds of the test plants were sown separately for each species.
# (§4) For the post-emergence treatment, the test plants were grown to a plant height of from 1 to 15 cm, depending on the plant habit, and only then treated with the active compounds which had been suspended or emulsified in water. To this end, the test plants were either sown directly, and grown in the same containers, or they were first grown separately as seedlings and transplanted into the test containers a few days prior to treatment.
# (§5) Depending on the species, the plants were kept at 10-25° C. and 20-35° C., respectively.
# (§6) The test period extended over 1 to 3 weeks. During this time, the plants were tended and their response to the individual treatments was evaluated 20 days after treatment except mentioned otherwise.
# (§7) Evaluation was carried out using a scale from 0 to 100. 100 means no emergence of the plants, or complete destruction of at least the above-ground parts, and 0 means no damage or normal course of growth.
# (§8) The respective stated components A and B, and, if appropriate, C, were formulated as a 10% by weight strength emulsion concentrate and, with addition of the amount of solvent system, introduced into the spray liquor used for applying the active compound. In the examples, the solvent used was water.
# (§9) In the examples below, using the method of S. R. Colby (1967) “Calculating synergistic and antagonistic responses of herbicide combinations”, Weeds 15, p. 22 ff., the value E, which is expected if the activity of the individual active compounds is only additive, was calculated. E=X+Y−(X·Y/100)
# MATCH = format: in vivo, Matricaria recutita; design: key to herbicidal activity against MATCH found: rating on a scale from 0 to 100
# How it was run: as §1
# CHEAL = format: in vivo, Chenopodium album
# Experimental: as §3, §4, §5, §6, §7, §8, §9
# ECHCG = format: in vivo, Echinochloa crus-galli; design: key to herbicidal activity against ECHCG found / herbicidal activity against ECHCH found: scale 0 to 100
# How it was run: as §1
# ALOMY = format: in vivo, Alopecurus myosuroides; design: key to herbicidal activity against ALOMY found: rating on a scale from 0 to 100; conditions: post emergence
# How it was run: as §1
# AMBEL = format: in vivo, Ambrosia artemisiifolia; design: key: rating on a scale from 0 to 100
# Experimental: as §3, §4, §5, §6, §7, §8, §9
# IPOHE = format: in vivo, Ipomoea hederacea; design: key to herbicidal activity against IPOHE found: rating on a scale from 0 to 100; conditions: post emergence
# How it was run: as §2
# SASKR = format: in vivo, Salsola kali; design: key: scale 0 to 100; conditions: 9.375 g/ha a.i.
# Experimental: as §3, §4, §5, §6, §7, §8, §9
# POLCO = format: in vivo, Polygonum convolvulus; design: key to herbicidal activity against POLCO found: rating on a scale from 0 to 100; conditions: for herbicidal activity against POLCO found: single active
# How it was run: as §2
# APESV = format: in vivo, Apera spica-venti; design: key to herbicidal activity against APESV found: rating on a scale from 0 to 100
# How it was run: as §1
# PAPRH = format: in vivo, Papaver rhoeas; design: key: rating on a scale from 0 to 100; conditions: B.93 alone 1.5 g/ha a.i.
# How it was run: as §1
# VIOAR = format: in vivo, Viola arvensis; design: key to herbicidal activity against VIOAR found / herbicidal activity against VIOLA found: rating on a scale from 0 to 100; conditions: single active, 175 g/ha a.i., post emergence
# How it was run: as §2
# GERDI = format: in vivo, Geranium dissectum; design: key to herbicidal activity against GERDI found: rating on a scale from 0 to 100; conditions: single active, post emergence
# How it was run: as §1
# [1] = a.i. g/ha: I.1 62.5, B.69 25, 20 days after treatment
# [2] = a.i. g/ha: I.1 31.25, B.69 25, 20 days after treatment
# [3] = Echinochloa crus-galli, post-emergence, 480 h, read-out: herbicidal activity against ECHCG found
# [4] = Abutilon theophrasti, post-emergence, 480 h, read-out: herbicidal activity against ABUTH found
# [5] = single active, 175 g/ha a.i., post emergence
smiles,measurement,setting,value
"N#Cc1cc(Br)c(O)c(Br)c1 [B.69, bromoxynil]",herbicidal activity against ERICA found,ERICA; [1],30%
same,herbicidal activity against ABUTH found,"ABUTH; post emergence, a.i. g/ha: I.1 62.5, B.69 25, 20 days after treatment",35%
same,herbicidal activity against GALAP found,"GALAP; post emergence, a.i. g/ha: I.1 62.5, B.69 25",50%
same,herbicidal activity against CONAR found,CONAR; [2],50%
same,herbicidal activity against CONAR found,CONAR; [1],50%
same,herbicidal activity against MATCH found,"MATCH; post emergence, a.i. g/ha: I.1 31.25, B.69 25, 20 days after treatment",0%
same,herbicidal activity against CHEAL found,CHEAL; [2],60%
same,herbicidal activity against CHEAL found,CHEAL; [1],60%
"CCOc1cc(Oc2ccc(C(F)(F)F)cc2Cl)ccc1[N+](=O)[O-] [B.91, oxyfluorfen]",pest or weed control at 100 g/ha,"ERICA; Erigeron canadensis, post-emergence, 480 h, single active, 100 g/ha a.i., read-out: herbicidal activity against ERICA found",0%
same,pest or weed control at 200 g/ha,"ERICA; Erigeron canadensis, post-emergence, 480 h, single active, 200 g/ha a.i., read-out: herbicidal activity against ERICA found",90%
same,pest or weed control at 100 g/ha,"ECHCG; Echinochloa crus-galli, post-emergence, 480 h, single active, 100 g/ha a.i., post emergence, read-out: herbicidal activity against ECHCG found",60%
same,pest or weed control at 100 g/ha,"ALOMY; Alopecurus myosuroides, post-emergence, 480 h, single active, 100 g/ha a.i., read-out: herbicidal activity against ALOMY found",85%
same,herbicidal activity against AMBEL found,"AMBEL; single active, 100 g/ha a.i.",70
"CS(=O)(=O)c1ccc(C(=O)C2C(=O)CCCC2=O)c(Cl)c1COCC(F)(F)F [B.106, tembotrione]",pest or weed control at 9.375 g/ha,"ERICA; Erigeron canadensis, post-emergence, 480 h, 9.375 g/ha a.i., read-out: herbicidal activity against ERICA found",90%
same,pest or weed control at 9.375 g/ha,"MATCH; Matricaria chamomilla, post-emergence, 480 h, post emergence, 9.375 g/ha a.i., read-out: herbicidal activity against MATCH found",65%
same,pest or weed control at 9.375 g/ha,"IPOHE; Ipomoea hederacea, post-emergence, 480 h, 9.375 g/ha a.i., read-out: herbicidal activity against IPOHE found",70%
same,herbicidal activity against SASKR found,SASKR,65
COc1nc(C)nc(=NC(=O)NS(=O)(=O)c2ccccc2C(=O)O)[nH]1 [metsulfuron],pest or weed control at 0.125 g/ha,ECHCG; [3],0%
same,pest or weed control at 0.25 g/ha,ECHCG; [3],25%
same,pest or weed control at 0.125 g/ha,ABUTH; [4],20%
same,pest or weed control at 0.25 g/ha,ABUTH; [4],80%
same,pest or weed control at 0.125 g/ha,"POLCO; Fallopia convolvulus, post-emergence, 480 h, read-out: herbicidal activity against POLCO found",30%
same,pest or weed control at 0.125 g/ha,"GALAP; Galium aparine, post-emergence, 480 h, read-out: herbicidal activity against GALAP found",10%
same,herbicidal activity against AMBEL found,AMBEL; metsulfuron alone 0.125 g/ha a.i.,0
same,pest or weed control at 0.25 g/ha,"APESV; Apera spica-venti, post-emergence, 480 h, read-out: herbicidal activity against APESV found",30%
same,pest or weed control at 0.125 g/ha,"MATCH; Matricaria chamomilla, post-emergence, 480 h, read-out: herbicidal activity against MATCH found",0%
"Cc1cnc(C2=NC(=O)C(C)(C(C)C)N2)c(C(=O)O)c1 (stereo not shown) [B.32, imazapic]",pest or weed control at 6 g/ha,"ABUTH; Abutilon theophrasti, post-emergence, 480 h, B.32 alone 6 g/ha a.i., post emergence, read-out: herbicidal activity against ABUTH found",85%
same,pest or weed control at 3 g/ha,"POLCO; Fallopia convolvulus, post-emergence, 480 h, B.32 alone 3 g/ha a.i., post emergence, read-out: herbicidal activity against POLCO found",85%
same,pest or weed control at 3 g/ha,"ALOMY; Alopecurus myosuroides, post-emergence, 480 h, B.32 alone 3 g/ha a.i., read-out: herbicidal activity against ALOMY found",25%
same,herbicidal activity against AMBEL found,AMBEL; B.32 alone 3 g/ha a.i.,0
same,herbicidal activity against AMBEL found,AMBEL; B.32 alone 6 g/ha a.i.,65
same,pest or weed control at 3 g/ha,"APESV; Apera spica-venti, post-emergence, 480 h, B.32 alone 3 g/ha a.i., post emergence, read-out: herbicidal activity against APESV found",65%
same,pest or weed control at 6 g/ha,"APESV; Apera spica-venti, post-emergence, 480 h, B.32 alone 6 g/ha a.i., post emergence, read-out: herbicidal activity against APESV found",80%
same,pest or weed control at 3 g/ha,"MATCH; Matricaria chamomilla, post-emergence, 480 h, B.32 alone 3 g/ha a.i., post emergence, read-out: herbicidal activity against MATCH found",0%
same,pest or weed control at 6 g/ha,"MATCH; Matricaria chamomilla, post-emergence, 480 h, B.32 alone 6 g/ha a.i., post emergence, read-out: herbicidal activity against MATCH found",30%
same,pest or weed control at 6 g/ha,"IPOHE; Ipomoea hederacea, post-emergence, 480 h, B.32 alone 6 g/ha a.i., read-out: herbicidal activity against IPOHE found",75%
"Cc1nn(-c2cc(NS(C)(=O)=O)c(Cl)cc2Cl)c(=O)n1C(F)F [B.93, sulfentrazone]",pest or weed control at 3 g/ha,"POLCO; Fallopia convolvulus, post-emergence, 480 h, B.93 alone 3 g/ha a.i., post emergence, read-out: herbicidal activity against POLCO found",85%
same,pest or weed control at 6 g/ha,"POLCO; Fallopia convolvulus, post-emergence, 480 h, B.93 alone 6 g/ha a.i., post emergence, read-out: herbicidal activity against POLCO found",85%
same,pest or weed control at 1.5 g/ha,"ALOMY; Alopecurus myosuroides, post-emergence, 480 h, B.93 alone 1.5 g/ha a.i., read-out: herbicidal activity against ALOMY found",0%
same,pest or weed control at 1.5 g/ha,"GALAP; Galium aparine, post-emergence, 480 h, B.93 alone 1.5 g/ha a.i., post emergence, read-out: herbicidal activity against GALAP found",45%
same,herbicidal activity against AMBEL found,AMBEL; B.93 alone 1.5 g/ha a.i.,20
same,herbicidal activity against AMBEL found,AMBEL; B.93 alone 6 g/ha a.i.,30
same,pest or weed control at 1.5 g/ha,"APESV; Apera spica-venti, post-emergence, 480 h, B.93 alone 1.5 g/ha a.i., post emergence, read-out: herbicidal activity against APESV found",10%
same,pest or weed control at 1.5 g/ha,"MATCH; Matricaria chamomilla, post-emergence, 480 h, B.93 alone 1.5 g/ha a.i., post emergence, read-out: herbicidal activity against MATCH found",0%
same,pest or weed control at 3 g/ha,"MATCH; Matricaria chamomilla, post-emergence, 480 h, B.93 alone 3 g/ha a.i., post emergence, read-out: herbicidal activity against MATCH found",50%
same,pest or weed control at 6 g/ha,"MATCH; Matricaria chamomilla, post-emergence, 480 h, B.93 alone 6 g/ha a.i., post emergence, read-out: herbicidal activity against MATCH found",50%
same,herbicidal activity against PAPRH found,PAPRH,70
"CCNc1nc(Cl)nc(NC(C)(C)C)n1 [B.82, terbuthylazine]",herbicidal activity against GALAP found,"GALAP; post emergence, a.i. g/ha: I.1 62.5, B.82 31.25",55%
same,herbicidal activity against CHEAL found,"CHEAL; a.i. g/ha: I.1 62.5, B.82 31.25, 20 days after treatment",65%
COCC(C)N(C(=O)CCl)c1c(C)csc1C (stereo not shown) [DMTA],herbicidal activity against ERICA found,"ERICA; single active, 175 g/ha a.i.",15
same,herbicidal activity against ECHCG found,ECHCG; [5],90
same,herbicidal activity against POLCO found,"POLCO; 175 g/ha a.i., post emergence",0
same,herbicidal activity against POLCO found,"POLCO; 350 g/ha a.i., post emergence",25
same,herbicidal activity against ALOMY found,"ALOMY; single active, 175 g/ha a.i.",0
same,herbicidal activity against ALOMY found,"ALOMY; single active, 350 g/ha a.i.",45
same,herbicidal activity against AMBEL found,"AMBEL; single active, 175 g/ha a.i.",0
same,herbicidal activity against AMBEL found,"AMBEL; single active, 350 g/ha a.i.",20
same,herbicidal activity against VIOLA found,VIOAR,0
same,herbicidal activity against APESV found,APESV; [5],95
same,herbicidal activity against MATCH found,MATCH; [5],30
same,herbicidal activity against MATCH found,"MATCH; single active, 350 g/ha a.i., post emergence",30
same,herbicidal activity against IPOHE found,"IPOHE; single active, 350 g/ha a.i.",25
same,herbicidal activity against GERDI found,GERDI; 175 g/ha a.i.,30
same,herbicidal activity against GERDI found,GERDI; 350 g/ha a.i.,60
